Test results as given in patent publication US20220267801A1, “ELIMINATION OF PROLIFERATING CELLS FROM STEM CELL-DERIVED GRAFTS” (Research Development Foundation, priority 2016, published 2022).
Entries after “also recorded” stand apart in the source; their conditions may differ.

Key:
control neurons = experiment: Calcein cell viability assay, ganciclovir on control neurons; format: cell-based, human; conditions: concentrations up to 40 μM
Experimental: (§1) The impact of ganciclovir on TK cells was determined in vitro (FIG. 2B, 2C, 2D). TK PSCs were highly sensitive to ganciclovir exposure (96 h) and even at ganciclovir concentrations of 2.5 μM loss of cells was observed, which was almost complete at 10 μM (FIG. 2B, 2C). In contrast, regular PSCs (i.e., not transduced with the TK construct) were resistant to ganciclovir even at concentrations of 40 μM (FIG. 2B, 2F). As expected from the lack of TK expression in TK neurons, TK neurons were not affected by ganciclovir concentrations up to 40 μM, similar to the control neurons.
(§2) Generation of NPC in two dimensional culture (2D): For differentiation in 2D, 3-week old neurospheres were dissociated with ACCUMAX® (Millipore) and replated on polyornithine- (15 μg/mL; Sigma) and laminin- (2 μg/cm^2; R&D System) coated cover slips (diameter=0.8cm) in 24-well plates at 200,000 cells/cm^2 in maturation medium for 1 week before analysis by immunofluorescence staining (FIG. 1B).
(§3) Cell proliferation measurement by calcein assay: Cells were plated onto a 96 wells pre-coated with polyornothine+ECM (1/50). Respectively 1000 cells for pluripotent stem cells, 5000 cells for early NPC and 30000 cells for late NPC. […] Cell survival was measured by calcein integration after 24 h of incubation in a 37° C. incubator.

[1] = system: transplanted TK-NPC graft; experiment: Transplantation of 2-3 week NPC neurospheres into mouse striatum, ganciclovir treatment; format: in vivo, mice
Experimental: (§4) FIGS. 3A-3C: Schedule of cell transplantation and ganciclovir treatment. Different transplantation and ganciclovir treatment protocols were used. (A) Schematic representation of the differentiation protocol towards DA neurons. Pluripotent stem cells were cultured as neurospheres for 1 week for midbrain orientation phase, followed by a 2 or 3 week-maturation phase. (B) Transplantation of undifferentiated pluripotent stem cells with early or late ganciclovir treatment. Early treatment: undifferentiated pluripotent stem cells were transplanted and ganciclovir (or PBS control) was applied by daily intra-peritoneal injection from day 4 to day 19 post-transplantation. Late treatment: undifferentiated pluripotent stem cells were transplanted and ganciclovir (or PBS control) was applied by daily intra-peritoneal injection from day 30 to day 45 post-transplantation. (C) Transplantation of 2 or 3 week NPC: NPC containing- neurospheres were dissociated and transplanted into mice striatum. Ganciclovir (or PBS control) treatment was given from day 4 to day 19 post-transplantation. For all protocols, animals were sacrificed 1 month after termination of ganciclovir treatment.
Transplantation of TK-NPCs produced mature neurons which were not sensitive to ganciclovir treatment: The in vivo results, shown so far, were obtained with transplantation of undifferentiated pluripotent stem cells. However, the final goal of neuronal cell therapy is the transplantation of neural precursor cells, which should differentiate into mature neurons and be resistant to ganciclovir treatment. Therefore, 2-3 weeks-NPC containing neurospheres were transplanted (FIGS. 3C, 8). Under these conditions, no tumor formation was observed, even in the absence of ganciclovir treatment (FIG. 8A). In line with these observations, the transplanted cells (assessed by immunofluorescence 7 weeks after transplantation) were abundantly positive for beta 3 tubulin (FIG. 8B, upper panel), while a smaller fraction of cells was TH-positive (FIG. 8B, lower panel). Occasionally nestin-positive cells were observed.
Markers of cellular proliferation were analyzed by staining of the transplants with antibodies against PCNA and Ki67 (FIG. 8C). […] To verify whether the PCNA-positive, Ki67-negative cells were proliferating cells, BrdU experiments were performed.
Stereotaxic engraftment and ganciclovir treatment: Undifferentiated pluripotent stem cells (20000 cells/ μL) and dissociated neurospheres (100.000 cells/μL) were injected in the striatum of anesthetized mice using a 27-G Hamilton syringe. Injection coordinates for lateral striatum were: bregma=0.74 mm, mediolateral=2.25 mm, dorsoventral=3.5 mm; for medial striatum: bregma=0.74 mm, mediolateral=1.4 mm, dorsoventral=2.8 mm. […]

TK neurons = experiment: Calcein cell viability assay, ganciclovir on TK-neurons; format: cell-based, human; conditions: concentrations up to 40 μM
Experimental: as §1, §2, §3

[2] = system: regular PSCs (not transduced with the TK construct); experiment: Calcein cell viability assay, ganciclovir on control PSC; format: cell-based, human; conditions: concentrations up to 40 μM
Experimental: as §1
(§5) Cell proliferation measurement by calcein assay: Cells were plated onto a 96 wells pre-coated with polyornothine+ECM (1/50). Respectively 1000 cells for pluripotent stem cells, 5000 cells for early NPC and 30000 cells for late NPC. Ganciclovir (Cemevene diluted in PBS, Roche) treatment was added the day after cell plating for PSC, 3 days later for early NPC and one week later for late NPC. Calcein (2 μM) was added for different time course of ganciclovir treatment (24 H to 96 H). Cell survival was measured by calcein integration after 24 h of incubation in a 37° C. incubator.

[3] = system: teratoma from transplanted TK-PSC; experiment: TK-PSC transplantation into striatum of NOD/SCID mice, ganciclovir treatment, teratoma formation; format: in vivo
Experimental: as §4
Early, but not late ganciclovir treatment prevents tumor formation upon transplantation of highly proliferative pluripotent stem cells: Given the encouraging results in vitro, it was investigated whether ganciclovir could prevent tumor formation in vivo. For this purpose TK-PSC were transplanted into the striatum of NOD/SCID mice. […] There was a moderate amount of mouse microglia invasion.
It was next investigated whether ganciclovir could also be used to treat already established teratomas. […] Mice were sacrificed 30 days after the end of the ganciclovir treatment.
Stereotaxic engraftment and ganciclovir treatment: Undifferentiated pluripotent stem cells (20000 cells/ μL) and dissociated neurospheres (100.000 cells/μL) were injected in the striatum of anesthetized mice using a 27-G Hamilton syringe. Injection coordinates for lateral striatum were: bregma=0.74 mm, mediolateral=2.25 mm, dorsoventral=3.5 mm; for medial striatum: bregma=0.74 mm, mediolateral=1.4 mm, dorsoventral=2.8 mm. Mice were euthanized one month later after ganciclovir termination.
Morphological and Phenotypic Analysis of Injected Surviving Cells: Anesthetized mice were fixed by intracardiac perfusion of 4% paraformaldehyde in phosphate-buffered saline. Immunohistochemical detection was performed on 10-μm thick free-floating cryostat sections using Alexa 488®-, or 555-labeled secondary antibodies or the biotin—avidin—peroxidase complex method (Vector). The following primary antibodies were used: Nestin (rabbit polyclonal anti-human, from Chemicon, 1/400), β3-tubulin (mouse monoclonal from Sigma or rabbit polyclonal from Covance, 1/2000), Neuronal Nuclei-specific protein (NeuN, mouse monoclonal from Chemicon, 1/1000), Glial Fibrillary Acidic Protein (GFAP, rabbit polyclonal from Dako, 1/2000), Proliferating Cell Nuclear Antigen (PCNA, mouse monoclonal from Dako, 1/100), Tyrosin Hydroxylase (TH, rabbit polyclonal from millipore, 1/500), iba 1 (polyclonal rabbit from Wako, 1/500), HSV-TK (mouse monoclonal, Gentaur, 1/100), ki67 (monoclonal rabbit, Abcam, 1/100 or mouse, Chemicon, 1/100).

[4] = system: TK-NPCs (neurosphere-derived neural precursor cells); experiment: Calcein cell viability assay, ganciclovir time course on TK-NPC; format: cell-based, human; conditions: 40 μM ganciclovir
Experimental: (§6) The time course of the ganciclovir effect was also investigated (FIG. 2D). TK PSCs were killed by Ganciclovir (40 μM) within 4 days. TK-NPCs after 1 week of neurosphere differentiation were still sensitive to Ganciclovir (40 μM), however the time course of killing was markedly slowed down and complete killing was observed only after 8 days.
Generation of neurospheres containing DA neuropecursors: NPC were generated as neurospheres to contain DA progenitors as described previously (Tieng et al., 2014). Briefly, neural midbrain orientation is performed during the first week followed by 2 additional weeks of maturation to obtain 1 week or 2 or 3 week-old NPC (FIGS. 1B, 3A).
as §5

[5] = system: TK-PSC (HS415 pluripotent stem cells expressing HSV-TK under Ki67 promoter); experiment: Calcein cell viability assay, ganciclovir on TK-PSC; format: cell-based, human
Experimental: as §1, §6, §5

[6] = early treatment, one month after termination of treatment

Structure (SMILES): Nc1nc(O)c2ncn(COC(CO)CO)c2n1 [ganciclovir]
- effect of ganciclovir on control neurons (control neurons): not affected
- size of transplants (graft surface) ([1]; NPC from 2-3 weeks old neurospheres, early ganciclovir treatment): not affected
- proliferation marker pattern of transplants (PCNA positive, Ki67 low to absent) ([1]; ganciclovir vs control): did not alter this pattern
- neural markers of transplanted cells (beta 3 tubulin, TH, nestin) ([1]; immunofluorescence 7 weeks after transplantation): None of these markers were affected
- graft development, ganciclovir vs PBS ([1]; sacrifice 4 weeks after termination of treatment): No difference
- effect of ganciclovir on TK neurons (TK neurons): not affected; also recorded: lose their sensitivity
- sensitivity of regular (control) PSCs to ganciclovir [2]: resistant; also recorded: no ganciclovir toxicity is observed
- tumor development (graft surface) ([3]; early ganciclovir treatment): completely prevented
- Ki67 and TK expression in the graft region [3, 6]: virtually no Ki67 and TK expression
- human cells (HCM) remaining in the graft [3, 6]: hardly any human cells left; also recorded: barely detectable
- teratoma formation ([3]; early treatment: 15 days, starting 4 days post-transplantation, daily i.p.): no observed teratomas; also recorded: absence of teratoma formation
- tumor size (graft surface) ([3]; late ganciclovir treatment): did not have any effect
- teratoma formation ([3]; late treatment: days 30-45 post-transplantation, sacrifice 30 days after end of treatment): teratoma formation; also recorded: no difference
- time to complete killing of TK-NPCs ([4]; TK-NPCs after 1 week of neurosphere differentiation): 8 days
- killing of TK-NPCs ([4]; TK-NPCs after 2 weeks of neurosphere differentiation): not killed
- time to killing of TK PSCs ([5]; 40 μM ganciclovir): ≤ 4 days
- ganciclovir concentration at which loss of cells was almost complete ([5]; TK PSCs, 96 h exposure): 10 µM
- ganciclovir concentration at which loss of cells was observed ([5]; TK PSCs, 96 h exposure): 2.5 µM
